From PubChem BioAssay (NCI)
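In this assay, cells in 96-well plates receive the compound at five concentrations for 48 hours. Endpoints are linearly interpolated between the surrounding concentrations. TGI: concentration producing complete growth inhibition.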

Experiments:
Experiment in all cases: growth of human tumour cells (NCI), 48 h
UO-31 renal = system: UO-31 renal
MOLT-4 leukemia = system: MOLT-4 leukemia
CCRF-CEM leukemia = system: CCRF-CEM leukemia
EKVX NSCLC = system: EKVX NSCLC
RPMI-8226 leukemia = system: RPMI-8226 leukemia
SF-539 CNS = system: SF-539 CNS
SN12C renal = system: SN12C renal
SK-OV-3 ovarian = system: SK-OV-3 ovarian
A498 renal = system: A498 renal
SK-MEL-5 melanoma = system: SK-MEL-5 melanoma
KM12 colon = system: KM12 colon
MDA-MB-435 = system: MDA-MB-435
RXF 393 renal = system: RXF 393 renal
SNB-19 CNS = system: SNB-19 CNS
MDA-MB-231 breast = system: MDA-MB-231 breast
PC-3 prostate = system: PC-3 prostate
DU-145 prostate = system: DU-145 prostate
OVCAR-3 ovarian = system: OVCAR-3 ovarian
NCI-H226 lung = system: NCI-H226 lung
SW-620 colon = system: SW-620 colon
OVCAR-5 ovarian = system: OVCAR-5 ovarian
HCT-116 colon = system: HCT-116 colon
HCT-15 colon = system: HCT-15 colon
MDA-N = system: MDA-N
UACC-257 melanoma = system: UACC-257 melanoma
UACC-62 melanoma = system: UACC-62 melanoma
K-562 leukemia = system: K-562 leukemia
OVCAR-8 ovarian = system: OVCAR-8 ovarian
COLO 205 colon = system: COLO 205 colon
U251 CNS = system: U251 CNS
NCI/ADR-RES ovarian = system: NCI/ADR-RES ovarian
LOX IMVI melanoma = system: LOX IMVI melanoma
SK-MEL-28 melanoma = system: SK-MEL-28 melanoma
SK-MEL-2 melanoma = system: SK-MEL-2 melanoma
HS 578T breast = system: HS 578T breast
HOP-92 NSCLC = system: HOP-92 NSCLC
OVCAR-4 ovarian = system: OVCAR-4 ovarian
NCI-H23 lung = system: NCI-H23 lung
MALME-3M melanoma = system: MALME-3M melanoma
MCF7 breast = system: MCF7 breast
HOP-62 NSCLC = system: HOP-62 NSCLC
SF-268 CNS = system: SF-268 CNS
IGROV1 ovarian = system: IGROV1 ovarian
ACHN renal = system: ACHN renal
M14 melanoma = system: M14 melanoma
SF-295 CNS = system: SF-295 CNS
HL-60(TB) leukemia = system: HL-60(TB) leukemia
SR leukemia = system: SR leukemia
TK-10 renal = system: TK-10 renal
NCI-H460 lung = system: NCI-H460 lung
HT29 colon = system: HT29 colon
A549 NSCLC = system: A549 NSCLC
CAKI-1 renal = system: CAKI-1 renal
SNB-75 CNS = system: SNB-75 CNS
786-0 renal = system: 786-0 renal

## O=C1OC(c2ccc(O)c(F)c2)(c2ccc(O)c(F)c2)c2cccc3cccc1c23
UO-31 renal
  TGI: > 25 µM
MOLT-4 leukemia
  TGI: > 25 µM
CCRF-CEM leukemia
  TGI: > 25 µM
EKVX NSCLC
  TGI: 19.4 µM
RPMI-8226 leukemia
  TGI: > 25 µM
SF-539 CNS
  TGI: > 25 µM
SN12C renal
  TGI: > 25 µM
SK-OV-3 ovarian
  TGI: > 25 µM
A498 renal
  TGI: > 25 µM
SK-MEL-5 melanoma
  TGI: > 25 µM
KM12 colon
  TGI: > 25 µM
MDA-MB-435
  TGI: > 25 µM
RXF 393 renal
  TGI: > 25 µM
SNB-19 CNS
  TGI: > 25 µM
MDA-MB-231 breast
  TGI: > 25 µM
PC-3 prostate
  TGI: > 25 µM
DU-145 prostate
  TGI: > 25 µM
OVCAR-3 ovarian
  TGI: > 25 µM
NCI-H226 lung
  TGI: > 25 µM
SW-620 colon
  TGI: > 25 µM
OVCAR-5 ovarian
  TGI: > 25 µM
HCT-116 colon
  TGI: > 25 µM
HCT-15 colon
  TGI: > 25 µM
MDA-N
  TGI: > 25 µM
UACC-257 melanoma
  TGI: > 25 µM
UACC-62 melanoma
  TGI: > 25 µM
K-562 leukemia
  TGI: > 25 µM
OVCAR-8 ovarian
  TGI: > 25 µM
COLO 205 colon
  TGI: > 25 µM
U251 CNS
  TGI: > 25 µM
NCI/ADR-RES ovarian
  TGI: > 25 µM
LOX IMVI melanoma
  TGI: > 25 µM
SK-MEL-28 melanoma
  TGI: > 25 µM
SK-MEL-2 melanoma
  TGI: > 25 µM
HS 578T breast
  TGI: > 25 µM
HOP-92 NSCLC
  TGI: > 25 µM
OVCAR-4 ovarian
  TGI: 193 nM
NCI-H23 lung
  TGI: > 25 µM
MALME-3M melanoma
  TGI: > 25 µM
MCF7 breast
  TGI: > 25 µM
HOP-62 NSCLC
  TGI: > 25 µM
SF-268 CNS
  TGI: > 25 µM
IGROV1 ovarian
  TGI: > 25 µM
ACHN renal
  TGI: > 25 µM
M14 melanoma
  TGI: > 25 µM
SF-295 CNS
  TGI: > 25 µM
HL-60(TB) leukemia
  TGI: 18.9 µM
SR leukemia
  TGI: > 25 µM
TK-10 renal
  TGI: > 25 µM
NCI-H460 lung
  TGI: > 25 µM
HT29 colon
  TGI: > 25 µM
A549 NSCLC
  TGI: > 25 µM
CAKI-1 renal
  TGI: 10.1 µM

## CC(=O)Oc1cc2oc(=O)cc(C)c2cc1OC(C)=O
UO-31 renal
  TGI: > 100 µM
MOLT-4 leukemia
  TGI: > 100 µM
CCRF-CEM leukemia
  TGI: > 100 µM
EKVX NSCLC
  TGI: > 100 µM
RPMI-8226 leukemia
  TGI: > 100 µM
SF-539 CNS
  TGI: > 100 µM
SN12C renal
  TGI: > 100 µM
SK-OV-3 ovarian
  TGI: > 100 µM
SNB-75 CNS
  TGI: > 100 µM
A498 renal
  TGI: > 100 µM
SK-MEL-5 melanoma
  TGI: > 100 µM
KM12 colon
  TGI: > 100 µM
MDA-MB-435
  TGI: > 100 µM
SNB-19 CNS
  TGI: > 100 µM
MDA-MB-231 breast
  TGI: > 100 µM
786-0 renal
  TGI: > 100 µM
PC-3 prostate
  TGI: > 100 µM
DU-145 prostate
  TGI: > 100 µM
OVCAR-3 ovarian
  TGI: > 100 µM
NCI-H226 lung
  TGI: > 100 µM
SW-620 colon
  TGI: > 100 µM
OVCAR-5 ovarian
  TGI: > 100 µM
HCT-116 colon
  TGI: > 100 µM
HCT-15 colon
  TGI: > 100 µM
MDA-N
  TGI: > 100 µM
UACC-257 melanoma
  TGI: > 100 µM
UACC-62 melanoma
  TGI: > 100 µM
K-562 leukemia
  TGI: > 100 µM
OVCAR-8 ovarian
  TGI: > 100 µM
COLO 205 colon
  TGI: > 100 µM
U251 CNS
  TGI: > 100 µM
NCI/ADR-RES ovarian
  TGI: > 100 µM
LOX IMVI melanoma
  TGI: > 100 µM
SK-MEL-28 melanoma
  TGI: > 100 µM
SK-MEL-2 melanoma
  TGI: > 100 µM
HS 578T breast
  TGI: > 100 µM
OVCAR-4 ovarian
  TGI: > 100000 nM
NCI-H23 lung
  TGI: > 100 µM
MALME-3M melanoma
  TGI: > 100 µM
MCF7 breast
  TGI: > 100 µM
HOP-62 NSCLC
  TGI: > 100 µM
SF-268 CNS
  TGI: > 100 µM
IGROV1 ovarian
  TGI: > 100 µM
ACHN renal
  TGI: > 100 µM
M14 melanoma
  TGI: > 100 µM
SF-295 CNS
  TGI: > 100 µM
SR leukemia
  TGI: > 100 µM
TK-10 renal
  TGI: > 100 µM
HT29 colon
  TGI: > 100 µM
A549 NSCLC
  TGI: > 100 µM
